Experimental data as given in article PMC9743148 (Annals of oncology : official journal of the European …, 2020).

Test system: patients with advanced solid tumors
Assay: Treatment-emergent adverse events
Format: in vivo, human
[1] = Combined t.i.w. cohorts (n = 42)

C=CC(=O)N1CC[C@H](n2nc(C#Cc3cc(OC)cc(OC)c3)c3c(N)ncnc32)C1 [futibatinib]
AST increased TEAE, Grade 1 [1]: 1 (2) n (%) | AST increased TEAE, Grade 2 [1]: 3 (7) n (%) | AST increased TEAE, Grade 3 [1]: 0 (0) n (%) | AST increased TEAE, Grade 4 [1]: 0 (0) n (%) | Abdominal pain TEAE, Any grade [1]: 8 (19) n (%) | Abdominal pain TEAE, Grade 1 [1]: 4 (10) n (%) | Abdominal pain TEAE, Grade 2 [1]: 2 (5) n (%) | Abdominal pain TEAE, Grade 3 [1]: 2 (5) n (%) | Abdominal pain TEAE, Grade 4 [1]: 0 (0) n (%) | Alopecia TEAE, Any grade [1]: 4 (10) n (%) | Alopecia TEAE, Grade 1 [1]: 4 (10) n (%) | Alopecia TEAE, Grade 2 [1]: 0 (0) n (%) | Alopecia TEAE, Grade 3 [1]: 0 (0) n (%) | Alopecia TEAE, Grade 4 [1]: 0 (0) n (%) | Anemia TEAE, Any grade [1]: 13 (31) n (%) | Anemia TEAE, Grade 1 [1]: 2 (5) n (%) | Anemia TEAE, Grade 2 [1]: 8 (19) n (%) | Anemia TEAE, Grade 3 [1]: 3 (7) n (%) | Anemia TEAE, Grade 4 [1]: 0 (0) n (%) | Any TEAE, Any grade [1]: 42 (100) n (%) | Any TEAE, Grade 1 [1]: 3 (7) n (%) | Any TEAE, Grade 2 [1]: 14 (33) n (%) | Any TEAE, Grade 3 [1]: 20 (48) n (%) | Any TEAE, Grade 4 [1]: 2 (5) n (%) | Any treatment-related AE, Any grade [1]: 37 (88) n (%) | Any treatment-related AE, Grade 1 [1]: 12 (29) n (%) | Any treatment-related AE, Grade 2 [1]: 14 (33) n (%) | Any treatment-related AE, Grade 3 [1]: 10 (24) n (%) | Any treatment-related AE, Grade 4 [1]: 1 (2) n (%) | Asthenia TEAE, Any grade [1]: 9 (21) n (%) | Asthenia TEAE, Grade 1 [1]: 5 (12) n (%) | Asthenia TEAE, Grade 2 [1]: 4 (10) n (%) | Asthenia TEAE, Grade 3 [1]: 0 (0) n (%) | Asthenia TEAE, Grade 4 [1]: 0 (0) n (%) | Back pain TEAE, Any grade [1]: 3 (7) n (%) | Back pain TEAE, Grade 1 [1]: 2 (5) n (%) | Back pain TEAE, Grade 2 [1]: 1 (2) n (%) | Back pain TEAE, Grade 3 [1]: 0 (0) n (%) | Back pain TEAE, Grade 4 [1]: 0 (0) n (%) | Constipation TEAE, Any grade [1]: 11 (26) n (%) | Constipation TEAE, Grade 1 [1]: 10 (24) n (%) | Constipation TEAE, Grade 2 [1]: 1 (2) n (%) | Constipation TEAE, Grade 3 [1]: 0 (0) n (%) | Constipation TEAE, Grade 4 [1]: 0 (0) n (%) | Cough TEAE, Any grade [1]: 2 (5) n (%) | Cough TEAE, Grade 1 [1]: 2 (5) n (%) | Cough TEAE, Grade 2 [1]: 0 (0) n (%) | Cough TEAE, Grade 3 [1]: 0 (0) n (%) | Cough TEAE, Grade 4 [1]: 0 (0) n (%) | Decreased appetite TEAE, Any grade [1]: 9 (21) n (%) | Decreased appetite TEAE, Grade 1 [1]: 5 (12) n (%) | Decreased appetite TEAE, Grade 2 [1]: 3 (7) n (%) | Decreased appetite TEAE, Grade 3 [1]: 1 (2) n (%) | Decreased appetite TEAE, Grade 4 [1]: 0 (0) n (%) | Diarrhea TEAE, Any grade [1]: 17 (40) n (%) | Diarrhea TEAE, Grade 1 [1]: 12 (29) n (%) | Diarrhea TEAE, Grade 2 [1]: 5 (12) n (%) | Diarrhea TEAE, Grade 3 [1]: 0 (0) n (%) | Diarrhea TEAE, Grade 4 [1]: 0 (0) n (%) | Dose reduction because of TEAE, Any grade [1]: 4 (10) n (%) | Dose reduction because of TEAE, Grade 1 [1]: 0 (0) n (%) | Dose reduction because of TEAE, Grade 2 [1]: 3 (7) n (%) | Dose reduction because of TEAE, Grade 3 [1]: 1 (2) n (%) | Dose reduction because of TEAE, Grade 4 [1]: 0 (0) n (%) | Dosing delay/interruption because of TEAE, Any grade [1]: 21 (50) n (%) | Dosing delay/interruption because of TEAE, Grade 1 [1]: 0 (0) n (%) | Dosing delay/interruption because of TEAE, Grade 2 [1]: 6 (14) n (%) | Dosing delay/interruption because of TEAE, Grade 3 [1]: 14 (33) n (%) | Dosing delay/interruption because of TEAE, Grade 4 [1]: 1 (2) n (%) | Dry eye TEAE, Any grade [1]: 2 (5) n (%) | Dry eye TEAE, Grade 1 [1]: 2 (5) n (%) | Dry eye TEAE, Grade 2 [1]: 0 (0) n (%) | Dry eye TEAE, Grade 3 [1]: 0 (0) n (%) | Dry eye TEAE, Grade 4 [1]: 0 (0) n (%) | Dry mouth TEAE, Any grade [1]: 14 (33) n (%) | Dry mouth TEAE, Grade 1 [1]: 13 (31) n (%) | Dry mouth TEAE, Grade 2 [1]: 1 (2) n (%) | Dry mouth TEAE, Grade 3 [1]: 0 (0) n (%) | Dry mouth TEAE, Grade 4 [1]: 0 (0) n (%) | Dry skin TEAE, Any grade [1]: 7 (17) n (%) | Dry skin TEAE, Grade 1 [1]: 6 (14) n (%) | Dry skin TEAE, Grade 2 [1]: 1 (2) n (%) | Dry skin TEAE, Grade 3 [1]: 0 (0) n (%) | Dry skin TEAE, Grade 4 [1]: 0 (0) n (%) | Fatigue TEAE, Any grade [1]: 7 (17) n (%) | Fatigue TEAE, Grade 1 [1]: 2 (5) n (%) | Fatigue TEAE, Grade 2 [1]: 5 (12) n (%) | Fatigue TEAE, Grade 3 [1]: 0 (0) n (%) | Fatigue TEAE, Grade 4 [1]: 0 (0) n (%) | Headache TEAE, Any grade [1]: 7 (17) n (%) | Headache TEAE, Grade 1 [1]: 6 (14) n (%) | Headache TEAE, Grade 2 [1]: 1 (2) n (%) | Headache TEAE, Grade 3 [1]: 0 (0) n (%) | Headache TEAE, Grade 4 [1]: 0 (0) n (%) | Hypercalcemia TEAE, Any grade [1]: 5 (12) n (%) | Hypercalcemia TEAE, Grade 1 [1]: 1 (2) n (%) | Hypercalcemia TEAE, Grade 2 [1]: 1 (2) n (%) | Hypercalcemia TEAE, Grade 3 [1]: 3 (7) n (%) | Hypercalcemia TEAE, Grade 4 [1]: 0 (0) n (%) | Hyperphosphatemia TEAE, Any grade [1]: 21 (50) n (%) | Hyperphosphatemia TEAE, Grade 1 [1]: 7 (17) n (%) | Hyperphosphatemia TEAE, Grade 2 [1]: 11 (26) n (%) | Hyperphosphatemia TEAE, Grade 4 [1]: 0 (0) n (%) | Hyperphosphatemia TEAE, grade 3 [1]: 3 (7) n (%) | Hypomagnesemia TEAE, Any grade [1]: 5 (12) n (%) | Hypomagnesemia TEAE, Grade 1 [1]: 4 (10) n (%) | Hypomagnesemia TEAE, Grade 2 [1]: 1 (2) n (%) | Hypomagnesemia TEAE, Grade 3 [1]: 0 (0) n (%) | Hypomagnesemia TEAE, Grade 4 [1]: 0 (0) n (%) | Hyponatremia TEAE, Any grade [1]: 5 (12) n (%) | Hyponatremia TEAE, Grade 1 [1]: 1 (2) n (%) | Hyponatremia TEAE, Grade 2 [1]: 0 (0) n (%) | Hyponatremia TEAE, Grade 3 [1]: 4 (10) n (%) | Hyponatremia TEAE, Grade 4 [1]: 0 (0) n (%) | Nausea TEAE, Any grade [1]: 12 (29) n (%) | Nausea TEAE, Grade 1 [1]: 11 (26) n (%) | Nausea TEAE, Grade 2 [1]: 0 (0) n (%) | Nausea TEAE, Grade 3 [1]: 1 (2) n (%) | Nausea TEAE, Grade 4 [1]: 0 (0) n (%) | Onycholysis TEAE, Any grade [1]: 5 (12) n (%) | Onycholysis TEAE, Grade 1 [1]: 4 (10) n (%) | Onycholysis TEAE, Grade 2 [1]: 1 (2) n (%) | Onycholysis TEAE, Grade 3 [1]: 0 (0) n (%) | Onycholysis TEAE, Grade 4 [1]: 0 (0) n (%) | Pyrexia TEAE, Any grade [1]: 5 (12) n (%) | Pyrexia TEAE, Grade 1 [1]: 4 (10) n (%) | Pyrexia TEAE, Grade 2 [1]: 0 (0) n (%) | Pyrexia TEAE, Grade 3 [1]: 1 (2) n (%) | Pyrexia TEAE, Grade 4 [1]: 0 (0) n (%) | Rash TEAE, Any grade [1]: 5 (12) n (%) | Rash TEAE, Grade 1 [1]: 5 (12) n (%) | Rash TEAE, Grade 2 [1]: 0 (0) n (%) | Rash TEAE, Grade 3 [1]: 0 (0) n (%) | Rash TEAE, Grade 4 [1]: 0 (0) n (%) | Stomatitis TEAE, Any grade [1]: 5 (12) n (%) | Stomatitis TEAE, Grade 1 [1]: 2 (5) n (%) | Stomatitis TEAE, Grade 2 [1]: 1 (2) n (%) | Stomatitis TEAE, Grade 3 [1]: 2 (5) n (%) | Stomatitis TEAE, Grade 4 [1]: 0 (0) n (%) | Treatment discontinuation because of TEAE, Any grade [1]: 1 (2) n (%) | Treatment discontinuation because of TEAE, Grade 1 [1]: 0 (0) n (%) | Treatment discontinuation because of TEAE, Grade 2 [1]: 0 (0) n (%) | Treatment discontinuation because of TEAE, Grade 3 [1]: 1 (2) n (%) | Treatment discontinuation because of TEAE, Grade 4 [1]: 0 (0) n (%) | Urinary tract infection TEAE, Any grade [1]: 5 (12) n (%) | Urinary tract infection TEAE, Grade 1 [1]: 0 (0) n (%) | Urinary tract infection TEAE, Grade 2 [1]: 4 (10) n (%) | Urinary tract infection TEAE, Grade 3 [1]: 1 (2) n (%) | Urinary tract infection TEAE, Grade 4 [1]: 0 (0) n (%) | Vomiting TEAE, Any grade [1]: 9 (21) n (%) | Vomiting TEAE, Grade 1 [1]: 5 (12) n (%) | Vomiting TEAE, Grade 2 [1]: 3 (7) n (%) | Vomiting TEAE, Grade 3 [1]: 1 (2) n (%) | Vomiting TEAE, Grade 4 [1]: 0 (0) n (%) | Hyperphosphatemia TEAE, grade 3 (combined q.d. cohorts): 16% | Hyperphosphatemia TEAE, any grade (combined q.d. cohorts, 30 of 44 patients): 68% | Hyperphosphatemia TEAE, grade 3 (combined t.i.w. cohorts): 7% | Hyperphosphatemia TEAE, any grade (combined t.i.w. cohorts, 21 of 42 patients): 50% | Patients with grade ≥3 TEAEs (overall population): > 50% | Grade 3 hyponatremia TEAE (overall population (n = 86)): 7% | Hyperphosphatemia leading to dose reductions (overall population (n = 86)): 6% | Hyperphosphatemia leading to dosing interruptions (overall population (n = 86)): 17% | Patients with grade 3 TEAEs (overall population (n = 86)): 48% | Patients with grade 4 TEAEs (overall population (n = 86)): 6% | Patients with treatment-related grade 3 AEs (overall population (n = 86)): 30% | TEAEs leading to treatment discontinuations (overall population (n = 86)): 3% | Treatment-related deaths (overall population (n = 86)): No treatment-related deaths
